# Test results taken from article PMC8815074, “Development of ^11C-Labeled ASEM Analogues for the Detection of Neuronal Nicotinic Acetylcholine Receptors (α7-nAChR)” (ACS Chemical Neuroscience, 2022).
# Target: T1, α7-nAChR (Rattus norvegicus, UniProt Q05941)
# T1 construct: gene Chrna7; native receptor in rat brain sections
# Test: radioligand autoradiography ([…] and 3H, […]) with blocking by ASEM and unlabeled KIn-83
# Details: read-out: % of total binding displaced at 10 uM
# T1 sequence (Q05941 23-502): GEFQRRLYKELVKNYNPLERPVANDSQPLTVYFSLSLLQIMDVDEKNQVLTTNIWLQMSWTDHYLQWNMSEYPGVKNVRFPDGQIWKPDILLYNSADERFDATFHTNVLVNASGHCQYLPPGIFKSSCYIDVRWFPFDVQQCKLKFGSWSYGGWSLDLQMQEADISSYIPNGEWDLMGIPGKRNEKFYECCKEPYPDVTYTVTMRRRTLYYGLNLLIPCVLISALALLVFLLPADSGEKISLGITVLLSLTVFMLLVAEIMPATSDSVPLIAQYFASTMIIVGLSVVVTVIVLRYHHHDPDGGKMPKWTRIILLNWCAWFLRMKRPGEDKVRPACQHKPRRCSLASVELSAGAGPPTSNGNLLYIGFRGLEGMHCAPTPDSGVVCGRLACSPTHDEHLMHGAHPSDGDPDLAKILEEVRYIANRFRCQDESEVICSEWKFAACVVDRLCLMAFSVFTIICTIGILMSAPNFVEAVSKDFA
smiles,measurement,value
COc1cccc2c1S(=O)(=O)c1cc(N3CCN4CCC3CC4)ccc1-2 [KIn-83],inhibition at 10 µM,80%
